These results are taken from ChEMBL document CHEMBL5291721, “A preclinical secondary pharmacology resource illuminates target-adverse drug reaction associations of marketed drugs” (Nat Commun, 2023).

Values joined by “and” are separate entries in the source; they are usually repeats but may differ in a detail not shown here. Equal entries are not always repeated. Where only a bound is given, the exact number is not on record here.

Test [1] addresses T1, Neuropeptide Y receptor type 1 (Homo sapiens, UniProt P25929).
T1 sequence (P25929 whole entry): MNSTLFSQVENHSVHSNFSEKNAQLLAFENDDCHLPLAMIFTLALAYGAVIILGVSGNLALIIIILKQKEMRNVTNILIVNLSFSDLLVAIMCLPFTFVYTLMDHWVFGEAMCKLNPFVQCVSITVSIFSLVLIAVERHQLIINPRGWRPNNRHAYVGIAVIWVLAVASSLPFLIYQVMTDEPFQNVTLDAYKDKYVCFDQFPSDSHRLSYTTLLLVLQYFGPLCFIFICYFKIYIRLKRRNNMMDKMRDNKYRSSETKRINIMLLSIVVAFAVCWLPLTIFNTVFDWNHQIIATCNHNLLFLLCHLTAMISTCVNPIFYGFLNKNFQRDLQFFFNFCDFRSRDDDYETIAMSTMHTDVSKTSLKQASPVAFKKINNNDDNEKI

In test [2] the target is Beta-2 adrenergic receptor (Homo sapiens, UniProt P07550).
The target of test [3] is Sodium-dependent dopamine transporter (Homo sapiens, UniProt Q01959).
Test [4] addresses 5-hydroxytryptamine receptor 2B (Homo sapiens, UniProt P41595). The test is classed as functional, cell-based.
Test [5] has as its target Delta-type opioid receptor (Homo sapiens, UniProt P41143).
Test [6] addresses T2, Gastrin/cholecystokinin type B receptor (Homo sapiens, UniProt P32239).
T2 sequence (P32239 whole entry): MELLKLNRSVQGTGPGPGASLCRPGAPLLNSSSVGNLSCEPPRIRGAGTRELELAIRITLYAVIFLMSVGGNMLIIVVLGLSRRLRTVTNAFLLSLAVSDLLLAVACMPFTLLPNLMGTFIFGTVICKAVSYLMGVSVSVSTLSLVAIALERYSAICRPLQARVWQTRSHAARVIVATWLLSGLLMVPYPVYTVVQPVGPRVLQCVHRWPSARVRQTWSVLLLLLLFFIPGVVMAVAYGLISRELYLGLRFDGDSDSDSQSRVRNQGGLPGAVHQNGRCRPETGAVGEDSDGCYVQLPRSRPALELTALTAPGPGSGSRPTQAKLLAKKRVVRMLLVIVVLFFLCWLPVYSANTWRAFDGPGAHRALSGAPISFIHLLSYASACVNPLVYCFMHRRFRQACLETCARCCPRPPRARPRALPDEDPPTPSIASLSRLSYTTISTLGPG

In a further test the target is Motilin receptor (Homo sapiens, UniProt O43193).
Test [7] has as its target T3, Equilibrative nucleoside transporter 1 (Homo sapiens, UniProt Q99808).
T3 sequence (Q99808 whole entry): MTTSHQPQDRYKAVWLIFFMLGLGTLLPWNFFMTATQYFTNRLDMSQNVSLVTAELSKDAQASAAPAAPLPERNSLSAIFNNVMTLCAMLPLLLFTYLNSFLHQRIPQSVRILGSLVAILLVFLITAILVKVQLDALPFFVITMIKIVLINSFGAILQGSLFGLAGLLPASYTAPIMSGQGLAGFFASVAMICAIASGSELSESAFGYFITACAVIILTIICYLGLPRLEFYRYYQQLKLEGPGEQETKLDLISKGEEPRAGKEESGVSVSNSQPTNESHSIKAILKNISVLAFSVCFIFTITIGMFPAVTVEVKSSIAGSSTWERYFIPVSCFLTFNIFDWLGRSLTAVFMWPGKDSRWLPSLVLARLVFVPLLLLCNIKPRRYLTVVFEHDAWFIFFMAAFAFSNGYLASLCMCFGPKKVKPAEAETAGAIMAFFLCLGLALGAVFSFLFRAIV

Test [8] deals with Kappa-type opioid receptor (Homo sapiens, UniProt P41145).
For test [9], the target named is T4, Cholecystokinin receptor type A (Homo sapiens, UniProt P32238).
T4 sequence (P32238 whole entry): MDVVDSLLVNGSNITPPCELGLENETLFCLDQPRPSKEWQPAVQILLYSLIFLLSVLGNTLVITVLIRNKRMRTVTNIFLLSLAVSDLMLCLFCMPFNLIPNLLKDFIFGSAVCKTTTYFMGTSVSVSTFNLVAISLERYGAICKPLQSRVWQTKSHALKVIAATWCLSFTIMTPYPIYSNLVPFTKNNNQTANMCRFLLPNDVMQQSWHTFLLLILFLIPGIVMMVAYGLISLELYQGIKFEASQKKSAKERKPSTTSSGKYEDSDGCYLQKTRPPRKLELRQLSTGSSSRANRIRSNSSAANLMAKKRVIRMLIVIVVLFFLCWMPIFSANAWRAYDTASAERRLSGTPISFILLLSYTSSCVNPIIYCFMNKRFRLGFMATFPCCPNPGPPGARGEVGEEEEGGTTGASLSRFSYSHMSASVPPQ

Test [10] concerns the target T5, Alpha-2A adrenergic receptor (Homo sapiens, UniProt P08913).
T5 sequence (P08913 whole entry): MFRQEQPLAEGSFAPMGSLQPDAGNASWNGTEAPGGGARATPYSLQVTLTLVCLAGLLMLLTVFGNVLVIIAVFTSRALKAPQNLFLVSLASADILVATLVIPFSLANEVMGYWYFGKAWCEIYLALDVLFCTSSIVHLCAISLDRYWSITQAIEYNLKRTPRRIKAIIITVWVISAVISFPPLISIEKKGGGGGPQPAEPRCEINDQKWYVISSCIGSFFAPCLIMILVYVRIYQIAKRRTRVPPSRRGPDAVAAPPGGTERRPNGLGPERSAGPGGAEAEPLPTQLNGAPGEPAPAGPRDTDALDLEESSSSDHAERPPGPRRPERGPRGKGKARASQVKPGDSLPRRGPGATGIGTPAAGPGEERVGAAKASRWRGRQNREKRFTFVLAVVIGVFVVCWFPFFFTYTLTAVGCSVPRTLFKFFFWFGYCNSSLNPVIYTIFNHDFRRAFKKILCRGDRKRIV
Format: functional, cell-based.
Further: assay procedure not described here.

5-hydroxytryptamine receptor 2B, sequence (P41595 whole entry): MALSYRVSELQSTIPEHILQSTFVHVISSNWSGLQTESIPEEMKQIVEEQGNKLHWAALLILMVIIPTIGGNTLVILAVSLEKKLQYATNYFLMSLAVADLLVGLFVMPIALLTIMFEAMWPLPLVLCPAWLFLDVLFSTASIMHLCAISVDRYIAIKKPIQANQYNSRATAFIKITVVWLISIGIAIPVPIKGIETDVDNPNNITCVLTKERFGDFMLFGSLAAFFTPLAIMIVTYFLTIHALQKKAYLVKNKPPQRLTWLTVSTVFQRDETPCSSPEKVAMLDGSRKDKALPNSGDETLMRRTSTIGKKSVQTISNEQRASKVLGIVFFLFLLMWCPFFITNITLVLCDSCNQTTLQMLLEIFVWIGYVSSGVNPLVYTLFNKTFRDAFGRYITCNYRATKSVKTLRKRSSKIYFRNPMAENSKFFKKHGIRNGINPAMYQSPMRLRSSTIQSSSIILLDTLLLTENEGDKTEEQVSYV
Sodium-dependent dopamine transporter, sequence (Q01959 whole entry): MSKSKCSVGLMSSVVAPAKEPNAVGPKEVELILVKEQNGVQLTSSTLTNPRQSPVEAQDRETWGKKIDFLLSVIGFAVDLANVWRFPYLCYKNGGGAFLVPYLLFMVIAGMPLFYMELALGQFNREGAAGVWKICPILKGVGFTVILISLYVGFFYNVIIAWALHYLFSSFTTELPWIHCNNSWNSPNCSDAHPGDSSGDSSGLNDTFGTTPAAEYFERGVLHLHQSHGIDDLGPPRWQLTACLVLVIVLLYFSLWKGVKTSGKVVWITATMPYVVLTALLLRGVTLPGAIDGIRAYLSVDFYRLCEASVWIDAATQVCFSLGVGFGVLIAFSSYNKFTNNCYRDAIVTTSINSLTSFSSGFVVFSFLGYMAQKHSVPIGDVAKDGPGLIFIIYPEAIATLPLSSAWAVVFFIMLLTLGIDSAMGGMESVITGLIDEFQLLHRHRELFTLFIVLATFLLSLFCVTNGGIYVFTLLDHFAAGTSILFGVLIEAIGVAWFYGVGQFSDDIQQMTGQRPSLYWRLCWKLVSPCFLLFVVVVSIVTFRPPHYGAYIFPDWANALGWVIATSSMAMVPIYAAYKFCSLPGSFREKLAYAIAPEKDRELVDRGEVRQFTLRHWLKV
Kappa-type opioid receptor, sequence (P41145 whole entry): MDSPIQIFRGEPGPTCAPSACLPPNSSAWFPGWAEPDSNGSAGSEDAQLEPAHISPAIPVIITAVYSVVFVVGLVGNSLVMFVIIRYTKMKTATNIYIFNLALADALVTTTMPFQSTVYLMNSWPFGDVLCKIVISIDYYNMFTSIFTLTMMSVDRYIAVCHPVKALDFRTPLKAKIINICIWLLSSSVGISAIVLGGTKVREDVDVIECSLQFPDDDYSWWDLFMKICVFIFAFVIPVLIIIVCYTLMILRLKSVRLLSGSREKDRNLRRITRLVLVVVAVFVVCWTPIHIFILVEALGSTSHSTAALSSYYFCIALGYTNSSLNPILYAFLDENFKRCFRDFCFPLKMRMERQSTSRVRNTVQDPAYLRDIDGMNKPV
Beta-2 adrenergic receptor, sequence (P07550 whole entry): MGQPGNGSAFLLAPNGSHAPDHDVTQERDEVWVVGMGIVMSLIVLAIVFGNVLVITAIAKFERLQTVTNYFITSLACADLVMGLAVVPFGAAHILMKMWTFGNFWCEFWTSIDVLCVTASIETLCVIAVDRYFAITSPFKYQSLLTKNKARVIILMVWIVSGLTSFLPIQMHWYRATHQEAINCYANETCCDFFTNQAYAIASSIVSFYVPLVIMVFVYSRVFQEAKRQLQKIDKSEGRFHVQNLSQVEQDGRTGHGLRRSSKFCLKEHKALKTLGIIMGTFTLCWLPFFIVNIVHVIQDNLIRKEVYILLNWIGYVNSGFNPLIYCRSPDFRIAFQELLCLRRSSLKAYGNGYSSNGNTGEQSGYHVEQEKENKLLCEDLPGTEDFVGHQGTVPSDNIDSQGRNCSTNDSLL
Motilin receptor, sequence (O43193 whole entry): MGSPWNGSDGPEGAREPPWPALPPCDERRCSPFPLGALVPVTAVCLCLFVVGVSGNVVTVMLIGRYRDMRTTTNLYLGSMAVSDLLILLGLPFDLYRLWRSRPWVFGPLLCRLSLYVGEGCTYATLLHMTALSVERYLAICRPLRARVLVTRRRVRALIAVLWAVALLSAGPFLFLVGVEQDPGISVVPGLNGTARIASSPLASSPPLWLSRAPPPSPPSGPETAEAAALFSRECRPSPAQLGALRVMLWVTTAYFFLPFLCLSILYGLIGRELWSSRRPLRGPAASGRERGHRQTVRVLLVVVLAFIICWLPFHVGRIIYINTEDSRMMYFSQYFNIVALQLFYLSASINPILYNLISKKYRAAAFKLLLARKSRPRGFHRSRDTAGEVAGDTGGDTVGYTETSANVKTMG
Delta-type opioid receptor, sequence (P41143 whole entry): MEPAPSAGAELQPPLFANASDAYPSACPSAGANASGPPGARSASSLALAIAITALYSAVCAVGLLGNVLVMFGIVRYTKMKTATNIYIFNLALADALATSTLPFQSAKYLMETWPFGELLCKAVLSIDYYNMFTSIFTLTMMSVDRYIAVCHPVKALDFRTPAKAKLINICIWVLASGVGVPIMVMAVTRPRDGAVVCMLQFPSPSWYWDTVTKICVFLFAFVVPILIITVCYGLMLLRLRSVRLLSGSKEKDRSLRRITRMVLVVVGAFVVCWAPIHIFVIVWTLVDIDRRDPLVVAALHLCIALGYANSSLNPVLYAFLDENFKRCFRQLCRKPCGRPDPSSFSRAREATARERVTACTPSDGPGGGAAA

In general, AC50 refers to the concentration giving half of the maximal activity seen. Read a high AC50 as weaker potency. Turning to `Oc1cc(O)c(Cl)cn1`, the concentration at half-maximal activity (AC50) in test [1], in test [2], in test [3], in test [4], in test [5] and in [6] was over 30 µM each time. In addition, the AC50 (on Motilin receptor; in test [7]; in [8]; in test [9]; in [10]) was over 30 µM throughout.

Consider `CC(C)N(CCCCOCC(=O)O)c1cnc(-c2ccccc2)c(-c2ccccc2)n1`, for which the AC50 in test [1] was over 30 µM; in test [2], over 30 µM; in test [3] it was over 30 µM; in test [4] it was over 30 µM; in test [5] it was over 30 µM; in [6], over 3 µM. Besides, the AC50 on Motilin receptor is over 30 µM; in [7] it was over 30 µM; in test [8], over 30 µM; in test [9], over 10 µM; in [10] it was over 30 µM.

Regarding `C[N+]12CCC(CC1)C(OC(=O)C(O)(c1ccccc1)c1ccccc1)C2` (centres undefined), the AC50 in [1], in test [2], in [3], in test [4], in test [5] and in test [6] was over 30 µM each time. Besides, the AC50 (at Motilin receptor; in test [8]; in test [9]; in [10]) was over 30 µM each time.

In the case of `Cc1cc(=O)n(-c2ccccc2)n1C` [ANTIPYRINE], the AC50 in [1] was over 30 µM; in test [2] it was over 10 µM; in test [3], over 30 µM; in test [4] it was over 10 µM; in test [5], over 30 µM; in [6] it was over 30 µM. The AC50 on Motilin receptor was over 10 µM; in [7] it was over 30 µM; in [8], over 10 µM; in test [9] it was over 30 µM; in test [10], over 10 µM.

Turning to `O=C(CCCN1CCC(O)(c2ccc(Br)cc2)CC1)c1ccc(F)cc1` [BROMPERIDOL], the AC50 (in test [1]; in [2]; in test [4]; in test [5]; in test [6]; on Motilin receptor) was over 30 µM in each case. The values for the AC50 in test [7], in test [8] and in test [9] were over 30 µM, 10 µM and over 30 µM, respectively.

For `COc1cc(N)c(Cl)cc1C(=O)NC1CCN(CCCOc2ccc(F)cc2)CC1OC` (centres undefined) [CISAPRIDE], the AC50 in test [1] is over 30 µM; in test [2] it was over 10 µM; in [3], over 30 µM; in test [5], over 10 µM; in [6] it was over 30 µM; at Motilin receptor, 1.8 µM. The AC50 is over 30 µM in [7], 16.7 µM in test [8] and over 30 µM in test [9].

`CN1CCN=C(c2ccccc2)c2cc(Cl)ccc21` [MEDAZEPAM]: the AC50 in test [1] was over 30 µM; in test [2], over 30 µM; in test [3], 22 µM; in test [4] it was over 30 µM; in [5], over 30 µM; in test [6], over 30 µM. The AC50 on Motilin receptor is over 30 µM; in test [8], 0.99 µM; in test [9], over 30 µM; in [10] it was over 30 µM.

Consider `C[C@]12C/C(=C/O)C(=O)C[C@@H]1CC[C@@H]1[C@@H]2CC[C@@]2(C)[C@H]1CC[C@]2(C)O` [OXYMETHOLONE], for which the AC50 in test [1], in test [2], in test [3], in [4], in test [5] and in [6] was over 30 µM throughout. The AC50 (at Motilin receptor; in test [8]; in [9]; in test [10]) was over 30 µM throughout.

Turning to `Fc1ccc([C@@H]2CCNC[C@H]2COc2ccc3c(c2)OCO3)cc1` [PAROXETINE], the AC50 was over 30 µM in test [1]; 9.5 µM in [2]; 9.9 µM and > 30 µM in test [4]; 0.83 µM in [5]; over 30 µM in test [6]; over 10 µM on Motilin receptor. The half-maximal activity concentration (AC50) in test [7] and in test [9] was over 30 µM throughout.

Regarding `COc1cc(C(=O)OCc2cccc(COC(=O)c3cc(OC)c(OC)c(OC)c3)n2)cc(OC)c1OC` [PIROZADIL], the AC50 (in [1]; in [3]; in [4]; in [5]; in [6]; on Motilin receptor) was over 30 µM each time. Moreover, the AC50 in [7], in test [8], in [9] and in test [10] was over 30 µM in each case.

Take `CCC(=O)O[C@](Cc1ccccc1)(c1ccccc1)[C@H](C)CN(C)C` [PROPOXYPHENE]: the concentration at half-maximal activity (AC50) in test [1] was over 30 µM; in test [2] it was over 10 µM; in [3], over 10 µM; in test [4], over 10 µM; in test [5], 11 µM; in test [6], over 30 µM. Also, the concentration at half-maximal activity (AC50) at Motilin receptor is over 10 µM; in test [7], over 30 µM; in [9] it was over 30 µM; in test [10], over 10 µM.

Take `CCN1CCCC1CNC(=O)c1cc(S(=O)(=O)CC)ccc1OC` (centres undefined) [SULTOPRIDE]: the AC50 in test [1], in test [2], in test [3], in test [4], in test [5] and in [6] was over 30 µM throughout. Moreover, the AC50 (at Motilin receptor; in test [8]; in [9]; in test [10]) was over 30 µM throughout.

For the compound `C=CCN1CCc2nc(N)sc2CC1` [TALIPEXOLE], the AC50 (in [1]; in [3]; in [4]; in [5]; in [6]; at Motilin receptor) was over 30 µM throughout. Also, the AC50 was over 30 µM in [7], 17 µM in [8], over 30 µM in test [9] and 0.083 µM in test [10].
